Laboratory results: patent US10173991B2, “Sulfone amide linked benzothiazole inhibitors of endothelial lipase” (BRISTOL-MYERS SQUIBB COMPANY, priority 2014, dated 2019)

Each compound was assayed against Endothelial lipase (EL) (Homo sapiens (Human), UniProt Q9Y5X9) (assay: Endothelial lipase (EL) enzymatic assay with fluorescent substrate A10070 in DMPG vesicles). Conditions: not given.
Type: biochemical
Method in brief: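 Compounds were preincubated with enzyme for 30 min at 37° C before FRET-substrate vesicles (A10070 in DMPG, 0.11 mole fraction) were added. Reaction rates were obtained from the 300–900 sec slope of fluorescence at 490/530 nm.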

Sequence of Endothelial lipase (EL) (Q9Y5X9 21-500): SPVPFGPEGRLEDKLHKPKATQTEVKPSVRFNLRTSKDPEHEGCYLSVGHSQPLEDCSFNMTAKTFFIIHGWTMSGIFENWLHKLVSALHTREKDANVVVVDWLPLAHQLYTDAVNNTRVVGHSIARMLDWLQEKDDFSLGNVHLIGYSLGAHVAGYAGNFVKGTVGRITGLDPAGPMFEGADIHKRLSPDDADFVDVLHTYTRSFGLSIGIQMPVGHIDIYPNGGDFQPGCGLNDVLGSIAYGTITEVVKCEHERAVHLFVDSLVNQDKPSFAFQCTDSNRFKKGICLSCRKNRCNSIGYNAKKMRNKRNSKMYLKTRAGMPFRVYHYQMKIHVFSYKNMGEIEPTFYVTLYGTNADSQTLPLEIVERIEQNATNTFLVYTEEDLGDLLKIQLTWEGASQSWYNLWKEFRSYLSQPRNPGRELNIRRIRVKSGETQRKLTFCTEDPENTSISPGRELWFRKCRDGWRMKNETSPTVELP

Compound	IC50
Cc1cc2nc(C(C(=O)NCC(=O)NC3CC3)S(=O)(=O)C(C)C)sc2cc1-c1ccc(C(C)C)nc1 (stereo not shown) [Example 253, N-[(cyclopropyl-carbamoyl)methyl]-2-{5-methyl-6-[6-(propan-2-yl)pyridin-3-yl]-1,3-benzothiazol-2-yl}-2-(propane-2-sulfonyl) acetamide]	0.007 µM
CC(C)S(=O)(=O)C(C(=O)NCC(=O)NC1CC1)c1nc2cc(F)c(-c3cnc(C4CC4)nc3)cc2s1 (stereo not shown) [Example 243, N-[(cyclopropyl-carbamoyl)methyl]-2-[6-(2-cyclopropyl-pyrimidin-5-yl)-5-fluoro-1,3-benzothiazol-2-yl]-2-(propane-2-sulfonyl) acetamide]	0.033 µM
COCCS(=O)(=O)C(C(=O)NCC(=O)NC1CC1)c1nc2cc(-c3cccc(C(=O)N4CCC(F)(F)C4)c3)ccc2s1 (stereo not shown) [Example 396, N-[(cyclopropyl-carbamoyl)methyl]-2-{5-[3-(3,3-difluoro-pyrrolidine-1-carbonyl)phenyl]-1,3-benzothiazol-2-yl}-2-(2-methoxyethane-sulfonyl)acetamide]	0.008 µM
CC(=O)Nc1cccc(-c2ccc3nc(C(C(=O)NCC(=O)NC4CC4)S(C)(=O)=O)sc3c2)c1 (stereo not shown) [Example 111, N-[(cyclopropyl-carbamoyl)methyl]-2-[6-(3-acetamidophenyl)-1,3-benzothiazol-2-yl]-2-methanesulfonyl-acetamide]	0.023 µM
O=C(CNC(=O)C(c1nc2ccc(-c3ccc(F)nc3)cc2s1)S(=O)(=O)c1ccc(F)cc1)NC1CC1 (stereo not shown) [Example 457, N-[(cyclopropyl-carbamoyl)methyl]-2-(4-fluorobenzene-sulfonyl)-2-[6-(6-fluoropyridin-3-yl)-1,3-benzothiazol-2-yl]acetamide]	0.024 µM
COC(=O)Nc1cccc(-c2cc(F)c3nc(C(C(=O)NCC(=O)NC4CC4)S(=O)(=O)C(C)C)sc3c2)c1 (stereo not shown) [Example 280, methyl N-{3-[2-({[(cyclopropyl-carbamoyl)methyl]carbamoyl} (propane-2-sulfonyl)methyl)-4-fluoro-1,3-benzothiazol-6-yl]phenyl}carbamate]	0.006 µM
CN(C)S(=O)(=O)C(C(=O)NCC(=O)NC1CC1)c1nc2c(F)cc(-c3ccc(N4CCCCC4=O)cc3)cc2s1 (stereo not shown) [Example 499, N-[(cyclopropyl-carbamoyl)methyl]-2-(dimethyl-sulfamoyl)-2-{4-fluoro-6-[4-(2-oxopiperidin-1-yl)phenyl]-1,3-benzothiazol-2-yl} acetamide]	0.004 µM
CN(C)S(=O)(=O)C(C(=O)NCC(=O)NC1CC1)c1nc2c(F)cc(-c3ccc4c(=O)n(C)ccc4c3)cc2s1 (stereo not shown) [Example 493, N-[(cyclopropyl-carbamoyl)methyl]-2-(dimethyl-sulfamoyl)-2-[4-fluoro-6-(2-methyl-1-oxo-1,2-dihydro-isoquinolin-6-yl)-1,3-benzothiazol-2-yl]acetamide]	0.001 µM
CC(C)n1cc(-c2ccc3nc(C(C(=O)NCC(=O)NC4CC4)S(=O)(=O)Cc4cccc(C#N)c4)sc3c2)ccc1=O (stereo not shown) [Example 230, 2-[(3-cyanophenyl)methanesulfonyl]-N-[(cyclopropyl-carbamoyl)methyl]-2-{6-[6-oxo-1-(propan-2-yl)-1,6-dihydropyridin-3-yl]-1,3-benzothiazol-2-yl}acetamide]	0.046 µM
CCCCS(=O)(=O)C(C(=O)NCC(=O)NC1CC1)c1nc2cc(F)c(-c3ccc(NC(=O)OCc4ccccc4)cc3)cc2s1 (stereo not shown) [Example 53, benzyl N-(4-{2-[(butane-1-sulfonyl) ({[(cyclopropyl-carbamoyl)methyl]carbamoyl})methyl]-5-fluoro-1,3-benzothiazol-6-yl}phenyl) carbamate]	0.002 µM
Cc1ccc(-c2cc3sc(C(C(=O)NCC(=O)NC4CC4)S(=O)(=O)C(C)C)nc3cc2C)cn1 (stereo not shown) [Example 252, N-[(cyclopropyl-carbamoyl)methyl]-2-[5-methyl-6-(6-methylpyridin-3-yl)-1,3-benzothiazol-2-yl]-2-(propane-2-sulfonyl)acetamide]	0.015 µM
O=C(CNC(=O)C(c1nc2cc(F)c(-c3ccc(NC(=O)OCC4CC4)cc3)cc2s1)S(=O)(=O)CCC(F)(F)F)NC1CC1 (stereo not shown) [Example 531, cyclopropylmethyl N-{4-[2-({[(cyclopropyl-carbamoyl)methyl]carbamoyl}(3,3,3-trifluoropropane-sulfonyl)methyl)-5-fluoro-1,3-benzothiazol-6-yl]phenyl} carbamate]	0.001 µM
CS(=O)(=O)C(C(=O)NCC(=O)NC1CC1)c1nc2cc(F)c(-c3cnc(C4CC4)nc3)cc2s1 (stereo not shown) [Example 192, N-[(cyclopropyl-carbamoyl)methyl]-2-[6-(2-cyclopropyl-pyrimidin-5-yl)-5-fluoro-1,3-benzothiazol-2-yl]-2-methanesulfonyl-acetamide]	0.025 µM
O=C(CNC(=O)C(c1nc2c(F)cc(-c3cnc(C4CC4)nc3)cc2s1)S(=O)(=O)c1ccc(F)cc1)NC1CC1 (stereo not shown) [Example 476, N-[(cyclopropyl-carbamoyl)methyl]-2-[6-(2-cyclopropyl-pyrimidin-5-yl)-4-fluoro-1,3-benzothiazol-2-yl]-2-(4-fluorobenzene-sulfonyl)acetamide]	0.051 µM
CC(C)S(=O)(=O)C(C(=O)NCC(=O)NC1CC1)c1nc2cc(F)c(-c3ccc(C(=O)N4CCC4)cc3)cc2s1 (stereo not shown) [Example 244, 2-{6-[4-(azetidine-1-carbonyl)phenyl]-5-fluoro-1,3-benzothiazol-2-yl}-N-[(cyclopropyl-carbamoyl)methyl]-2-(propane-2-sulfonyl)acetamide]	0.007 µM

Now from value to compound:

IC50	Compound
0.011 µM	COCCS(=O)(=O)C(C(=O)NCC(=O)NC1CC1)c1nc2cc(F)c(-c3ccc(C)nc3)cc2s1 (stereo not shown) [Example 158, N-[(cyclopropyl-carbamoyl)methyl]-2-[5-fluoro-6-(6-methylpyridin-3-yl)-1,3-benzothiazol-2-yl]-2-(2-methoxyethane-sulfonyl) acetamide]
0.048 µM	COCCS(=O)(=O)C(C(=O)NCC(=O)NC1CC1)c1nc2ccc(-c3ccnc(OC)c3F)cc2s1 (stereo not shown) [Example 343, N-[(cyclopropyl-carbamoyl)methyl]-2-[6-(3-fluoro-2-methoxypyridin-4-yl)-1,3-benzothiazol-2-yl]-2-(2-methoxyethane-sulfonyl)acetamide]
0.03 µM	COc1ccc(-c2cc3nc(C(C(=O)NCC(=O)NC4CC4)S(C)(=O)=O)sc3cc2F)cn1 (stereo not shown) [Example 366, N-[(cyclopropyl-carbamoyl)methyl]-2-[6-fluoro-5-(6-methoxypyridin-3-yl)-1,3-benzothiazol-2-yl]-2-methanesulfonyl-acetamide]
0.023 µM	COCCS(=O)(=O)C(C(=O)NCC(=O)NC1CC1)c1nc2cc(-c3ccn(C)c(=O)c3)c(F)cc2s1 (stereo not shown) [Example 342, N-[(cyclopropyl-carbamoyl)methyl]-2-[6-fluoro-5-(1-methyl-2-oxo-1,2-dihydropyridin-4-yl)-1,3-benzothiazol-2-yl]-2-(2-methoxyethane-sulfonyl)acetamide]
0.016 µM	CC(C)S(=O)(=O)C(C(=O)NCC(=O)NC1CC1)c1nc2cc(F)c(-c3ccc4c(c3)CNC4=O)cc2s1 (stereo not shown) [Example 236, N-[(cyclopropyl-carbamoyl)methyl]-2-[5-fluoro-6-(1-oxo-2,3-dihydro-1H-isoindol-5-yl)-1,3-benzothiazol-2-yl]-2-(propane-2-sulfonyl) acetamide]
0.002 µM	COCCS(=O)(=O)C(C(=O)NCC(=O)NC1CC1)c1nc2cc(F)c(-c3cccc(-n4cccn4)c3)cc2s1 (stereo not shown) [Example 141, N-[(cyclopropyl-carbamoyl)methyl]-2-{5-fluoro-6-[3-(1H-pyrazol-1-yl)phenyl]-1,3-benzothiazol-2-yl}-2-(2-methoxyethane-sulfonyl) acetamide]
0.04 µM	CC(C)S(=O)(=O)C(C(=O)NCC(=O)NC1CC1)c1nc2cc(-c3ccc(C#N)cc3)c(F)cc2s1 (stereo not shown) [Example 275, 2-[5-(4-cyanophenyl)-6-fluoro-1,3-benzothiazol-2-yl]-N-[(cyclopropyl-carbamoyl)methyl]-2-(propane-2-sulfonyl)acetamide]
0.003 µM	CS(=O)(=O)C(C(=O)NCC(=O)NC1CC1)c1nc2cc(F)c(-c3cccc(Cl)c3)cc2s1 (stereo not shown) [Example 39, 2-[6-(3-chlorophenyl)-5-fluoro-1,3-benzothiazol-2-yl]-N-[(cyclopropyl-carbamoyl)methyl]-2-methanesulfonyl-acetamide]
0.011 µM	COCCS(=O)(=O)C(C(=O)NCC(=O)NC1CC1)c1nc2ccc(-c3ccc4c(c3)COC4=O)cc2s1 (stereo not shown) [Example 341, N-[(cyclopropyl-carbamoyl)methyl]-2-(2-methoxyethane-sulfonyl)-2-[6-(1-oxo-1,3-dihydro-2-benzofuran-5-yl)-1,3-benzothiazol-2-yl]acetamide]
0.012 µM	COCCS(=O)(=O)C(C(=O)NCC(=O)NC1CC1)c1nc2ccc(-c3ccc(C(=O)N4CC(C)(O)C4)cc3)cc2s1 (stereo not shown) [Example 405, N-[(cyclopropyl-carbamoyl)methyl]-2-{6-[4-(3-hydroxy-3-methylazetidine-1-carbonyl)phenyl]-1,3-benzothiazol-2-yl}-2-(2-methoxyethane-sulfonyl)acetamide]
0.043 µM	COCCS(=O)(=O)C(C(=O)NCC(=O)NC1CC1)c1nc2c(F)cc(-c3ccc(F)nc3)cc2s1 (stereo not shown) [Example 514, N-[(cyclopropyl-carbamoyl)methyl]-2-[4-fluoro-6-(6-fluoropyridin-3-yl)-1,3-benzothiazol-2-yl]-2-(2-methoxyethane-sulfonyl)acetamide]
0.003 µM	COCCS(=O)(=O)C(C(=O)NCC(=O)NC1CC1)c1nc2cc(F)c(-c3cccc(Cl)c3)cc2s1 (stereo not shown) [Example 40, 2-[6-(3-chlorophenyl)-5-fluoro-1,3-benzothiazol-2-yl]-N-[(cyclopropyl-carbamoyl)methyl]-2-(2-methoxyethane-sulfonyl)acetamide]

Same assay, conditions: EL from conditioned media of HT-1080 cells; 30 min preincubation at 37° C.

IC50	Compound
0.0045 µM	COC(=O)Nc1ccc(-c2cc3sc(C(C(=O)NCC(=O)NC4CC4)S(C)(=O)=O)nc3cc2F)cc1OC (stereo not shown) [Example 538, Methyl N-{4-[2({[(cyclopropylcarbamoyl)methyl]carbamoyl}(methanesulfonyl)methyl)-5-fluoro-1,3-benzothiazol-6-yl]-2-methoxyphenyl}carbamate]
